{
  "source": "paper PMC6116705",
  "about": "“Design, synthesis, in vitro antiproliferative activity and apoptosis-inducing studies of 1-(3′,4′,5′-trimethoxyphenyl)-3-(2′-alkoxycarbonylindolyl)-2-propen-1-one derivatives obtained by a molecular hybridisation approach” (Journal of Enzyme Inhibition and Medicinal Chemistry, 2018)",
  "key": {"[1]": {"tested_on": "human myeloid leukaemia U-937 cells", "assay": "MTT cytotoxicity assay, U-937", "type": "cell-based", "conditions": "U-937, MTT, 72 h, read-out: IC50, inhibition of cell growth", "method": "(§1) U-937 (human myeloid leukaemia) cells from DSMZ (German Collection of Microorganisms and Cell Cultures, Braunschweig, Germany) and U-937 cells overexpressing human Bcl-2 protein (designated U-937/Bcl-2, donated by Dr Jacqueline Bréard, INSERM U749, Faculté de Pharmacie Paris-Sud., Châtenay-Malabry, France) were cultured in RPMI-1640 medium containing 10% (v/v) heat-inactivated foetal bovine serum, 100 μg/mL streptomycin and 100 U/mL penicillin, incubated at 37 °C in a humidified atmosphere containing 5% CO2 as described. The functioning of U-937/Bcl-2 cells was tested using the cytotoxic agent 1-β-D-arabino-furanosylcytosine as previously described. Human peripheral blood mononuclear cells (PBMC) were isolated from heparin-anticoagulated blood of healthy volunteers by centrifugation with Ficoll-Paque Plus (GE Healthcare Bio-Sciences AB, Uppsala, Sweden). PBMC were also stimulated with phytohemagglutinin (2 μg/mL) for 48 h before the experimental treatment. The trypan blue dye exclusion method was used for counting the living/dead cells by a hematocytometer with 95% viability in all experiments. The cytotoxicity of compounds was evaluated by the colorimetric 3-(4,5-dimethyl-2-thiazolyl-)-2,5-diphenyl-2H-tetrazolium bromide (MTT) assay as previously described. Briefly, 5 × 10^3 exponentially growing cells were seeded in 96-well microculture plates with increasing concentrations of compounds for 72 h. After the addition of MTT (0.5 mg/mL), cells were incubated at 37 °C for 4 h. Sodium dodecyl sulphate (10% w/v) in 0.05 M HCl was added to the wells and then incubated at room temperature overnight in the dark. Absorbance was measured at 570 nm. […] Values are mean ± SE from at least three independent experiments, each performed in triplicate. Compounds were dissolved in DMSO and kept in the dark at 25 °C."}, "[2]": {"tested_on": "U-937/Bcl-2 cells", "assay": "Cell cycle phase distribution and apoptosis, flow cytometry (propidium iodide) and fluorescence microscopy, U-937/Bcl-2", "type": "cell-based, human", "method": "(§2) Fluorescent microscopy and flow cytometric analysis of propidium iodide-stained cells were performed as described. Briefly, cells were harvested and fixed in 3% paraformaldehyde and incubated at room temperature for 10 min. The fixative was removed, and the cells were washed with PBS, resuspended in 30–50 μL of PBS containing 20 μg/mL bis-benzimide trihydrochloride (Hoechst 33258) and incubated at room temperature for 15 min. Stained nuclei were visualized using a Zeiss fluorescence microscope.\n(§3) Flow cytometric analysis was carried out using a BD FACSVerse™ cytometer (BD Biosciences, San Jose, CA, USA)."}, "[3]": {"tested_on": "human promyelocytic leukemia (HL-60) cells", "assay": "Antiproliferative assay, cell counting (Coulter Counter), HL-60", "type": "cell-based", "conditions": "Homo sapiens; HL-60, 72–96 h; read-out: IC50, inhibition of proliferation", "method": "Human cervix carcinoma (HeLa), human colon carcinoma (HT29), human breast carcinoma (MCF-7) and human lymphoma (HL-60) cells (3–5 × 10^4 cells) and a serial (five-fold) dilution of the test compounds were added to a 96-well microtiter plate. The cells were incubated for 72–96 h (depending on the tumor cell line) at 37 °C in a humidified 5% CO2 atmosphere. At the end of the incubation period, the cells were counted in a Coulter Counter (Coulter Electronics Ltd, Harpenden Herts, UK). […] The IC50 values represent the average (±standard deviation) of at least two to four independent experiments."}, "[4]": {"tested_on": "U-937 cells", "assay": "Cell cycle phase distribution and apoptosis, flow cytometry (propidium iodide) and fluorescence microscopy, U-937", "type": "cell-based, human", "method": "as §2, §3"}, "[5]": {"tested_on": "human peripheral blood mononuclear cells (PBMC)", "assay": "Cytotoxicity on normal PBMC (quiescent or PHA-activated)", "type": "cell-based", "conditions": "up to 10 μM, 24 h", "method": "as §1, with “Briefly, 5 × 10^3 exponentially growing cells were seeded in 96-well microculture plates with increasing concentrations of compounds for 72 h.” left out"}},
  "note": "Several values for one entry are separate records, joined by “and”; a condition that tells them apart may be missing. Identical values can stand only once. Entries after “also recorded” stand apart in the source; their conditions may differ.",
  "data": [
    {"smiles": "COC(=O)c1[nH]c2cc(OC)ccc2c1/C=C/C(=O)c1cc(OC)c(OC)c(OC)c1", "note": "[Compound 9e, (E)-Methyl 6-methoxy-3-(3-oxo-3-(3,4,5-trimethoxyphenyl)prop-1-en-1-yl)-1H-indole-2-carboxylate]", "values": [
      {"measurement": "IC50", "setting": "[1]", "result": "5.7 ± 0.1", "unit": "µM"},
      {"measurement": "fold increase in the percentage of apoptotic (hypodiploid) cells", "setting": "[2]; U-937/Bcl-2, 1 μM, 72 h, versus control", "result": "~20", "unit": "fold"},
      {"measurement": "% G1", "setting": "[2]; U-937/Bcl-2, 24 h, 0.3 µM", "result": "24.7 ± 0.5", "unit": "%"},
      {"measurement": "% G2-M", "setting": "[2]; U-937/Bcl-2, 24 h, 0.3 µM", "result": "40.1 ± 1.3", "unit": "%"},
      {"measurement": "% S", "setting": "[2]; U-937/Bcl-2, 24 h, 0.3 µM", "result": "23.2 ± 0.2", "unit": "%"},
      {"measurement": "% Sub-G1", "setting": "[2]; U-937/Bcl-2, 24 h, 0.3 µM", "result": "9.8 ± 0.5", "unit": "%"},
      {"measurement": "% G1", "setting": "[2]; U-937/Bcl-2, 24 h, 1 µM", "result": "17.4 ± 0.2", "unit": "%"},
      {"measurement": "% G2-M", "setting": "[2]; U-937/Bcl-2, 24 h, 1 µM", "result": "47.3 ± 1.2", "unit": "%"},
      {"measurement": "% S", "setting": "[2]; U-937/Bcl-2, 24 h, 1 µM", "result": "18.1 ± 1.7", "unit": "%"},
      {"measurement": "% Sub-G1", "setting": "[2]; U-937/Bcl-2, 24 h, 1 µM", "result": "15% and 14.7 ± 0.7 %"},
      {"measurement": "% G1", "setting": "[2]; U-937/Bcl-2, 48 h, 0.3 µM", "result": "23.0 ± 0.7", "unit": "%"},
      {"measurement": "% G2-M", "setting": "[2]; U-937/Bcl-2, 48 h, 0.3 µM", "result": "34.3 ± 0.5", "unit": "%"},
      {"measurement": "% S", "setting": "[2]; U-937/Bcl-2, 48 h, 0.3 µM", "result": "22.4 ± 0.2", "unit": "%"},
      {"measurement": "% Sub-G1", "setting": "[2]; U-937/Bcl-2, 48 h, 0.3 µM", "result": "14.6 ± 0.4", "unit": "%"},
      {"measurement": "% G1", "setting": "[2]; U-937/Bcl-2, 48 h, 1 µM", "result": "13.0 ± 0.9", "unit": "%"},
      {"measurement": "% G2-M", "setting": "[2]; U-937/Bcl-2, 48 h, 1 µM", "result": "33.2 ± 0.9", "unit": "%"},
      {"measurement": "% S", "setting": "[2]; U-937/Bcl-2, 48 h, 1 µM", "result": "15.4 ± 0.1", "unit": "%"},
      {"measurement": "% Sub-G1", "setting": "[2]; U-937/Bcl-2, 48 h, 1 µM", "result": "28% and 28.0 ± 0.7 %"},
      {"measurement": "% G1", "setting": "[2]; U-937/Bcl-2, 72 h, 0.3 µM", "result": "22.4 ± 0.4", "unit": "%"},
      {"measurement": "% G2-M", "setting": "[2]; U-937/Bcl-2, 72 h, 0.3 µM", "result": "31.3 ± 1.3", "unit": "%"},
      {"measurement": "% S", "setting": "[2]; U-937/Bcl-2, 72 h, 0.3 µM", "result": "21.8 ± 0.8", "unit": "%"},
      {"measurement": "% Sub-G1", "setting": "[2]; U-937/Bcl-2, 72 h, 0.3 µM", "result": "17.6 ± 0.5", "unit": "%"},
      {"measurement": "% G1", "setting": "[2]; U-937/Bcl-2, 72 h, 1 µM", "result": "12.8 ± 0.5", "unit": "%"},
      {"measurement": "% G2-M", "setting": "[2]; U-937/Bcl-2, 72 h, 1 µM", "result": "23.1 ± 2.2", "unit": "%"},
      {"measurement": "% S", "setting": "[2]; U-937/Bcl-2, 72 h, 1 µM", "result": "16.0 ± 0.7", "unit": "%"},
      {"measurement": "% Sub-G1", "setting": "[2]; U-937/Bcl-2, 72 h, 1 µM", "result": "36% and 36.1 ± 3.3 %"},
      {"measurement": "IC50", "setting": "[3]", "result": "18 ± 14", "unit": "µM"},
      {"measurement": "% G1", "setting": "[4]; U-937, 24 h, 3 µM", "result": "43.2 ± 0.2", "unit": "%"},
      {"measurement": "% G2-M", "setting": "[4]; U-937, 24 h, 3 µM", "result": "24.5 ± 0.1", "unit": "%"},
      {"measurement": "% S", "setting": "[4]; U-937, 24 h, 3 µM", "result": "24.4 ± 0.1", "unit": "%"},
      {"measurement": "% Sub-G1", "setting": "[4]; U-937, 24 h, 3 µM", "result": "6.4 ± 0.4", "unit": "%"},
      {"measurement": "% G1", "setting": "[4]; U-937, 24 h, 10 µM", "result": "33.0 ± 2.1", "unit": "%"},
      {"measurement": "% G2-M", "setting": "[4]; U-937, 24 h, 10 µM", "result": "23.2 ± 0.3", "unit": "%"},
      {"measurement": "% S", "setting": "[4]; U-937, 24 h, 10 µM", "result": "27.1 ± 0.5", "unit": "%"},
      {"measurement": "% Sub-G1", "setting": "[4]; U-937, 24 h, 10 µM", "result": "14.3 ± 1.6", "unit": "%"},
      {"measurement": "% G1", "setting": "[4]; U-937, 48 h, 3 µM", "result": "53.6 ± 0.3", "unit": "%"},
      {"measurement": "% G2-M", "setting": "[4]; U-937, 48 h, 3 µM", "result": "16.5 ± 0.1", "unit": "%"},
      {"measurement": "% S", "setting": "[4]; U-937, 48 h, 3 µM", "result": "24.6 ± 0.3", "unit": "%"},
      {"measurement": "% Sub-G1", "setting": "[4]; U-937, 48 h, 3 µM", "result": "4.5 ± 0.2", "unit": "%"},
      {"measurement": "% G1", "setting": "[4]; U-937, 48 h, 10 µM", "result": "39.7 ± 1.1", "unit": "%"},
      {"measurement": "% G2-M", "setting": "[4]; U-937, 48 h, 10 µM", "result": "17.6 ± 0.0", "unit": "%"},
      {"measurement": "% S", "setting": "[4]; U-937, 48 h, 10 µM", "result": "23.3 ± 0.1", "unit": "%"},
      {"measurement": "% Sub-G1", "setting": "[4]; U-937, 48 h, 10 µM", "result": "17.9 ± 1.2", "unit": "%"},
      {"measurement": "% G1", "setting": "[4]; U-937, 72 h, 3 µM", "result": "52.0 ± 0.9", "unit": "%"},
      {"measurement": "% G2-M", "setting": "[4]; U-937, 72 h, 3 µM", "result": "14.3 ± 0.2", "unit": "%"},
      {"measurement": "% S", "setting": "[4]; U-937, 72 h, 3 µM", "result": "21.2 ± 0.7", "unit": "%"},
      {"measurement": "% Sub-G1", "setting": "[4]; U-937, 72 h, 3 µM", "result": "10.8 ± 0.1", "unit": "%"},
      {"measurement": "% G1", "setting": "[4]; U-937, 72 h, 10 µM", "result": "44.5 ± 1.4", "unit": "%"},
      {"measurement": "% G2-M", "setting": "[4]; U-937, 72 h, 10 µM", "result": "14.1 ± 0.4", "unit": "%"},
      {"measurement": "% S", "setting": "[4]; U-937, 72 h, 10 µM", "result": "21.4 ± 0.6", "unit": "%"},
      {"measurement": "% Sub-G1", "setting": "[4]; U-937, 72 h, 10 µM", "result": "18.4 ± 1.2", "unit": "%"},
      {"measurement": "Toxicity to normal PBMC", "setting": "[5]", "result": "devoid of significant cytotoxic activity; also recorded: no appreciable toxicity"}
    ]}
  ]
}
